Assay results: ChEMBL document CHEMBL1135545, “Conformational memories and the endocannabinoid binding site at the cannabinoid CB1 receptor” (J Med Chem, 2002)

What follows are compounds tested against Cannabinoid receptor 1 (Homo sapiens, UniProt P21554) (assay: Compound was evaluated for its binding affinity towards Cannabinoid receptor 1 [Inactive form(R) of CB1 receptor]).
Cannabinoid receptor 1, sequence (P21554 whole entry): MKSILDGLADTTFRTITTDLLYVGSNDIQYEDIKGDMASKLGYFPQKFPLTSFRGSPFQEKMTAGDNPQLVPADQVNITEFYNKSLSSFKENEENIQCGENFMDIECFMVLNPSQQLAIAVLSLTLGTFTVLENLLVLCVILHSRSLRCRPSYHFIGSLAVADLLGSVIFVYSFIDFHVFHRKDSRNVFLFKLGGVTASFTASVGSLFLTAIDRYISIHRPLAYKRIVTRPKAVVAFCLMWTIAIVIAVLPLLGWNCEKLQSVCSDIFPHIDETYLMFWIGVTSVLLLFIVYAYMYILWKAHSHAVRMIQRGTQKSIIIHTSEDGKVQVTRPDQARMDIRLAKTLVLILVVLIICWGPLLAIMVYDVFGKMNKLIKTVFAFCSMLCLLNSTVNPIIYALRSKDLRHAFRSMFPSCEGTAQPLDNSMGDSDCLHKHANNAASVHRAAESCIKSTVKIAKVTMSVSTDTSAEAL

Going from `CCCCC/C=C\C/C=C\C/C=C\C/C=C\CC[C@H](C)C(=O)N[C@@H](C)CO` to `CCCCC/C=C\C/C=C\C/C=C\C/C=C\CC[C@@H](C)C(=O)N[C@H](C)CO`, the Ki falls from 389 nM to 7.42 nM (52-fold).

First: CCCCC/C=C\C/C=C\CCCCCCCCCC(=O)NCCO
Second: CCCCC/C=C\C/C=C\C/C=C\C/C=C\CCCCCC(=O)NCCO
The Ki of the first is higher: greater than 1500 nM for the first, 34.4 nM for the second. The second binds more tightly here.

`CCCCC/C=C\C/C=C\C/C=C\C/C=C\CC[C@@H](C)C(=O)N[C@@H](C)CO` and `CCCCC/C=C\C/C=C\C/C=C\C/C=C\CC[C@H](C)C(=O)N[C@H](C)CO` are within 1.5-fold of each other in Ki: 233 nM for the first, 185 nM for the second.
